In US20240351960A1, “METHOD FOR PRODUCING […] THIO[…], AND USE OF COMPOUND IN NITROGEN FERTILIZER FORMULATIONS” (NOVAEM BBTRADE, priority 2021, published 2024):
Values joined by “and” are separate entries in the source; they are usually repeats but may differ in a detail not shown here. Identical values can stand only once.

Tests used:
urease [1] = assay: Volatilization of urea from garden soil treated with urea containing PTA (Example 2); settings: garden soil 1500 g, urea containing 0.1 wt % PTA (as third precipitate, at least 75% PTA), after four days, mass percent; control without PTA 15.4%
Description: Three 1500 g samples of garden soil were prepared, placed in airtight containers. One sample was treated with urea containing no PTA, and two samples with urea containing 0.1 wt % PTA. The amount of urea was the same for each sample. The PTA was the “third precipitate” within the meaning of the object of the present invention. It contained at least 75% by weight of PTA; the indication “0.1% by mass of PTA” refers here to the total mass of the third precipitate and not to the pure PTA which it contains.
Each soil sample was treated with 250 g of water before depositing the urea samples treated or not with PTA on the surface. The volatilization of urea was determined after four days, expressed in mass percent. For this, a current of air was conveyed above each sample using a membrane pump, and this air was led through a citric acid solution which fixes the ammonia by transforming it into ammonium. The citric acid solution was then titrated with a sodium hydroxide solution to calculate the amount of ammonia that had reacted with the citric acid solution. From the quantity of ammonia, the quantity of urea having generated it is calculated.
In this test, the earth was taken from a single location, and the containers were stored side by side in the same room. It can therefore be assumed that each batch was exposed to the same experimental conditions.

urease [2] = assay: Rate of urea volatilization from agricultural earth treated with urea fertilizer containing PTA (Examples 4 and 5); settings: after four days; for rate of urea volatilization: control 45.81%
Description: Three identical samples of agricultural earth were supplied. A first sample of this earth was treated with a urea fertilizer containing 0.2% by weight of the third precipitate. This precipitate contained at least 75% by weight of PTA; the indication “0.2% by mass of PTA” refers here to the total mass of the third precipitate and not to the pure PTA which it contains. A second sample of this earth was treated with the same quantity of the same fertilizer comprising 0.2% by mass of TPTA (in the sense indicated above for PTA). The third earth sample was treated with the same amount of the same fertilizer containing no urease inhibitor. The rate of urea volatilization was determined after four days of exposure:
Following the test described in Example 4, the dose effect of the PTA was determined by treating identical agricultural earth samples with a urea fertilizer comprising 0.05%, 0.1% and 0.2% by mass of PTA (in the sense indicated above: quantity of third precipitate).

In the case of `NP(N)(N)=O` [PTA, phosphoryl triamide], the volatilization of urea (urease [1]) is reported as 1.5% and 3.05%, the “volatilization of urea is reduced by” value (urease [2]; 0.2% by mass of PTA, versus control) is reported as “approximately 75%” and the “rate of urea volatilization” value (urease [2]; urea fertilizer with 0.05% by mass of PTA (quantity of third precipitate)) is reported as 34.19%. The “rate of urea volatilization” value (urease [2]; urea fertilizer with 0.1% by mass of PTA (quantity of third precipitate)) was 29.56% and the “rate of urea volatilization” value (urease [2]; urea fertilizer, printed as 0.02% PTA (quantity of third precipitate)) was 11.55%.
